Data reported in patent publication US8648081B2 (Eli Lilly and Company, priority 2011, dated 2014).

test system: Lone star tick larvae (Amblyomma americanum); assay: In Vitro Larval Immersion Microassay (LIM); details: read-out: % Efficacy (percent larval mortality)
Procedure: In Vitro Larval Immersion Microassay (LIM)
The larval immersion microassay may be conducted as described in White, et al., J. Med. Entomol. […] Briefly, experimental test articles are formulated in dimethylsulfoxide (DMSO) to prepare a stock solution at a concentration of 10 mM. […] Approximately 30-50 Lone star tick larvae (Amblyomma americanum) are submerged into each well containing experimental test articles. After a 30 minute immersion period, larvae are removed with a wide-bore pipette tip in 0.05 ml of fluid, dispensed into a commercial paper tissue biopsy bag which is sealed at the top with a plastic dialysis clip, inverted and allowed to air dry for 60 minutes. Bags containing larvae are then incubated at approximately 27 degrees Celsius and >90% relative humidity. After 24 hours, bags are opened, live and dead larvae are counted and percent larval mortality is calculated as follows: % Efficacy=(# dead larvae)/(# total larvae)×100.

Row | SMILES | mortality at 300 µM [%]
1 | O=C(Nc1ccc(F)cn1)c1sc(C2=NOC(c3cc(Cl)cc(Cl)c3)(C(F)(F)F)C2)c2c1CCCC2 (stereo not drawn) [Example 68, 3-(5-(3,5-dichloro-phenyl)-5-(trifluoro-methyl)-4,5-dihydro-isoxazol-3-yl)-N-(5-fluoropyridin-2-yl)-4,5,6,7-tetrahydro-benzo[c]thiophene-1-carboxamide] | ≥ 80
2 | O=C(NC1CCCOC1)c1sc(C2=NOC(c3cc(Cl)cc(Cl)c3)(C(F)(F)F)C2)c2c1CCCC2 (stereo not drawn) [Example 69] | ≥ 80
3 | O=C(NC1CSC1)c1sc(C2=NOC(c3cc(Cl)cc(Cl)c3)(C(F)(F)F)C2)c2c1CCCC2 (stereo not drawn) [Example 70, 3-(5-(3,5-dichloro-phenyl)-5-(trifluoro-methyl)-4,5-dihydro-isoxazol-3-yl)-N-(thietan-3-yl)-4,5,6,7-tetrahydrobenzo[c] thiophene-1-carboxamide] | ≥ 80
4 | O=C(NC1CCOCC1)c1sc(C2=NOC(c3cc(Cl)cc(Cl)c3)(C(F)(F)F)C2)c2c1CCCC2 (stereo not drawn) [Example 71, 3-(5-(3,5-dichloro-phenyl)-5-(trifluoro-methyl)-4,5-dihydro-isoxazol-3-yl)-N-(tetrahydro-2H-pyran-4-yl)-4,5,6,7-tetrahydrobenzo [c]thiophene-1-carboxamide] | ≥ 80
5 | O=C(NC1CCN(C2CC2)C1=O)c1sc(C2=NOC(c3cc(Cl)cc(Cl)c3)(C(F)(F)F)C2)c2c1CCCC2 (stereo not drawn) [Example 72] | ≥ 80
6 | O=C(NC1CCS(=O)(=O)CC1)c1sc(C2=NOC(c3cc(Cl)c(Cl)c(Cl)c3)(C(F)(F)F)C2)c2c1CCCC2 (stereo not drawn) [Example 75, 3-[5-(3,4,5-Trichloro-phenyl)-5-trifluoro-methyl-4,5-dihydro-isoxazol-3-yl]-4,5,6,7-tetrahydro-benzo[c]thiophene-1-carboxylic acid (1,1-dioxo-hexahydro-thiopyran-4-yl)-amide] | ≥ 80
7 | O=C(NC1CCN(CC(F)(F)F)C1=O)c1sc(C2=NOC(c3cc(Cl)c(Cl)c(Cl)c3)(C(F)(F)F)C2)c2c1CCCC2 (stereo not drawn) [Example 76, N-(2-oxo-1-(2,2,2-trifluoroethyl)pyrrolidin-3-yl)-3-(5-(3,4,5-trichloro-phenyl)-5-(trifluoro-methyl)-4,5-dihydro-isoxazol-3-yl)-4,5,6,7-tetrahydro-benzo[c]thiophene-1-carboxamide] | ≥ 80
8 | O=C(NC1CCOCC1)c1sc(C2=NOC(c3cc(Cl)c(Cl)c(Cl)c3)(C(F)(F)F)C2)c2c1CCCC2 (stereo not drawn) [Example 77, N-(tetrahydro-2H-pyran-4-yl)-3-(5-(3,4,5-trichlorophenyl)-5-(trifluoromethyl)-4,5-dihydroisoxazol-3-yl)-4,5,6,7-tetrahydrobenzo[c] thiophene-1-carboxamide] | ≥ 80
9 | O=C(NC1CCN(C2CC2)C1=O)c1sc(C2=NOC(c3cc(Cl)c(Cl)c(Cl)c3)(C(F)(F)F)C2)c2c1CCCC2 (stereo not drawn) [Example 78, N-(1-cyclopropyl-2-oxopyrrolidin-3-yl)-3-(5-(3,4,5-trichloro-phenyl)-5-(trifluoro-methyl)-4,5-dihydro-isoxazol-3-yl)-4,5,6,7-tetrahydrobenzo[c] thiophene-1-carboxamide] | ≥ 80
10 | O=C(NC1CS(=O)(=O)C1)c1sc(C2=NOC(c3cc(Cl)c(F)c(Cl)c3)(C(F)(F)F)C2)c2c1CCCC2 (stereo not drawn) [Example 79, 3-[5-(3,5-Dichloro-4-fluoro-phenyl)-5-trifluoromethyl-4,5-dihydro-isoxazol-3-yl]-4,5,6,7-tetrahydro-benzo[c]thiophene-1-carboxylic acid (1,1-dioxo-thietan-3-yl)-amide] | ≥ 80
11 | O=C(NC1CCS(=O)(=O)CC1)c1sc(C2=NOC(c3cc(Cl)c(F)c(Cl)c3)(C(F)(F)F)C2)c2c1CCCC2 (stereo not drawn) [Example 80, 3-[5-(3,5-Dichloro-4-fluoro-phenyl)-5-trifluoromethyl-4,5-dihydro-isoxazol-3-yl]-4,5,6,7-tetrahydro-benzo[c] thiophene-1-carboxylic acid (1,1-dioxo-hexahydro-thiopyran-4-yl)-amide] | ≥ 80
12 | O=C1CCC(NC(=O)c2sc(C3=NOC(c4cc(Cl)c(F)c(Cl)c4)(C(F)(F)F)C3)c3c2CCCC3)CC1 (stereo not drawn) [Example 81, 3-(5-(3,5-dichloro-4-fluorophenyl)-5-(trifluoromethyl)-4,5-dihydroisoxazol-3-yl)-N-(4-oxocyclohexyl)-4,5,6,7-tetrahydrobenzo [c]thiophene-1-carboxamide] | ≥ 80
13 | O=C(NC1CCN(CC(F)(F)F)C1=O)c1sc(C2=NOC(c3cc(Cl)c(F)c(Cl)c3)(C(F)(F)F)C2)c2c1CCCC2 (stereo not drawn) [Example 82] | ≥ 80
14 | O=C(NC1CCOCC1)c1sc(C2=NOC(c3cc(Cl)c(F)c(Cl)c3)(C(F)(F)F)C2)c2c1CCCC2 (stereo not drawn) [Example 83, 3-(5-(3,5-dichloro-4-fluorophenyl)-5-(trifluoromethyl)-4,5-dihydro-isoxazol-3-yl)-N-(tetrahydro-2H-pyran-4-yl)-4,5,6,7-tetrahydro-benzo[c]thiophene-1-carboxamide] | ≥ 80
15 | O=C(NC1CCN(C2CC2)C1=O)c1sc(C2=NOC(c3cc(Cl)c(F)c(Cl)c3)(C(F)(F)F)C2)c2c1CCCC2 (stereo not drawn) [Example 84, N-(1-cyclopropyl-2-oxopyrrolidin-3-yl)-3-(5-(3,5-dichloro-4-fluorophenyl)-5-(trifluoromethyl)-4,5-dihydroisoxazol-3-yl)-4,5,6,7-tetra-hydrobenzo[c] thiophene-1-carboxamide] | ≥ 80
16 | O=C1CCC(NC(=O)c2sc(C3=NOC(c4cc(Cl)cc(Cl)c4)(C(F)(F)F)C3)c3c2CCC3)CC1 (stereo not drawn) [Example 85, 3-(5-(3,5-dichloro-phenyl)-5-(trifluoro-methyl)-4,5-dihydro-isoxazol-3-yl)-N-(4-oxocyclohexyl)-5,6-dihydro-4H-cyclopenta[c] thiophene-1-carboxamide] | ≥ 80
17 | O=C(NC1CCN(CC(F)(F)F)C1=O)c1sc(C2=NOC(c3cc(Cl)cc(Cl)c3)(C(F)(F)F)C2)c2c1CCC2 (stereo not drawn) [Example 86, 3-(5-(3,5-dichloro-phenyl)-5-(trifluoro-methyl)-4,5-dihydro-isoxazol-3-yl)-N-(2-oxo-1-(2,2,2-trifluoroethyl)pyrrolidin-3-yl)-5,6-dihydro-4H-cyclopenta[c] thiophene-1-carboxamide] | ≥ 80
18 | O=C(N[C@@H]1CCNC1=O)c1sc(C2=NO[C@@](c3cc(Cl)cc(Cl)c3)(C(F)(F)F)C2)c2c1CCCC2 [Example 87b, 3-((S)-5-(3,5-dichlorophenyl)-5-(trifluoromethyl)-4,5-dihydroisoxazol-3-yl)-N—((R)-2-oxopyrrolidin-3-yl)-4,5,6,7-tetrahydrobenzo[c]thiophene-1-carboxamide] | ≥ 80
19 | N#CCNC(=O)CNC(=O)c1sc(C2=NOC(c3cc(Cl)cc(Cl)c3)(C(F)(F)F)C2)c2c1CCCC2 (stereo not drawn) [Example 94, N-(2-(cyanomethylamino)-2-oxoethyl)-3-(5-(3,5-dichlorophenyl)-5-(trifluoromethyl)-4,5-dihydroisoxazol-3-yl)-4,5,6,7-tetrahydrobenzo[c]thiophene-1-carboxamide] | ≥ 80
20 | C#CCNC(=O)CNC(=O)c1sc(C2=NOC(c3cc(Cl)cc(Cl)c3)(C(F)(F)F)C2)c2c1CCCC2 (stereo not drawn) [Example 95, 3-(5-(3,5-dichlorophenyl)-5-(trifluoromethyl)-4,5-dihydroisoxazol-3-yl)-N-(2-oxo-2-(prop-2-ynylamino)ethyl)-4,5,6,7-tetrahydrobenzo [c]thiophene-1-carboxamide] | ≥ 80
21 | FC(F)(F)C1(c2cc(Cl)cc(Cl)c2)CC(c2cc3ccncc3s2)=NO1 (stereo not drawn) [Example 230, 2-[5-(3,5-Dichloro-phenyl)-5-tri-fluoromethyl-4,5-dihydro-isoxazol-3-yl]-thieno[2,3-c] pyridine] | ≥ 80
22 | FC(F)(F)C1(c2cc(Cl)cc(Cl)c2)CC(c2cc3cc(Br)cnc3s2)=NO1 (stereo not drawn) [Example 231, 5-Bromo-2-[5-(3,5-dichloro-phenyl)-5-trifluoromethyl-4,5-dihydro-isoxazol-3-yl]-thieno[2,3-b]pyridine] | ≥ 80
23 | FC(F)(F)C1(c2cc(Cl)cc(Cl)c2)CC(c2cc3cccnc3s2)=NO1 (stereo not drawn) [Example 232, 2-[5-(3,5-Dichloro-phenyl)-5-tri-fluoromethyl-4,5-dihydro-isoxazol-3-yl]-thieno[2,3-b] pyridine] | ≥ 80
24 | FC(F)(F)C1(c2cc(Cl)cc(Cl)c2)CC(c2cc3ccccc3s2)=NO1 (stereo not drawn) [Example 233, 3-(benzo[b]thio-phen-2-yl)-5-(3,5-dichlorophenyl)-5-(trifluoromethyl)-4,5-dihydroisoxazole] | ≥ 80
25 | Cc1ccc2sc(C3=NOC(c4cc(Cl)cc(Cl)c4)(C(F)(F)F)C3)cc2c1 (stereo not drawn) [Example 236, 5-(3,5-dichloro-phenyl)-3-(5-methyl-benzo[b]thiophen-2-yl)-5-(trifluoro-methyl)-4,5-dihydro-isoxazole] | ≥ 80

same assay, conditions: tested at 300 micromolar, 30 minute immersion, mortality counted after 24 hours, read-out: % Efficacy (percent larval mortality)

Row | SMILES | mortality at 300 µM [%]
26 | C#CCNC(=O)CNC(=O)c1sc(C2=NOC(c3sc(Cl)c(Cl)c3Cl)(C(F)(F)F)C2)c2c1CCCC2 (stereo not drawn) [Example 74, N-(2-oxo-2-(prop-2-ynylamino)ethyl)-3-(5-(3,4,5-trichloro-thiophen-2-yl)-5-(trifluoromethyl)-4,5-dihydroisoxazol-3-yl)-4,5,6,7-tetrahydro-benzo[c]thiophene-1-carboxamide] | ≥ 80
27 | N#CCNC(=O)CNC(=O)c1sc(C2=NOC(c3sc(Cl)c(Cl)c3Cl)(C(F)(F)F)C2)c2c1CCCC2 (stereo not drawn) [Example 96, N-(2-(cyanomethylamino)-2-oxoethyl)-3-(5-(3,4,5-trichlorothiophen-2-yl)-5-(trifluoromethyl)-4,5-dihydroisoxazol-3-yl)-4,5,6,7-tetrahydro-benzo[c]thiophene-1-carboxamide] | ≥ 80
